Results reported in US20010051131A1, “METHODS FOR DELIVERING BIOACTIVE AGENTS” (priority 1996, published 2001).

Tests used:
[1] = system: glioblastoma mutiformae; assay type: in vivo
Procedure: An acoustically active composition is prepared in a 2 mL vial from an aqueous mixture of phosphatidylcholine vesicles filled with perfluorobutane gas in a manner as described above. The resulting compositions contains about 2×10^9 gas filled vesicles. The vial of gas filled vesicles will be diluted into a 100 mL volume of normal saline such that the final gas filled vesicle concentration is about 2×10^7 gas filled vesicles/mL.
The scalp of a patient suffering from glioblastoma mutiformae will be shaved prior to the procedure. The patient will receive an intravenous infusion of 200 mg/M^2 of Carmustine (BCNU) over a period of about 30 minutes. Fifteen minutes after initiating IV injection of Carmustine, IV infusion of the gas filled vesicle composition will be initiated at a rate of about 2 mL per minute (or about 4×10^7 gas filled vesicles per minute). One minute after initiation of infusion of gas filled vesicles, a 200-kilohertz ultrasound transducer will be turned on, and using an acoustic gel, it will be applied to the shaved area of the scalp. The transducer is focused on the glioblastoma. The energy of the transducer will be adjusted to a peak negative pressure of about 2.5 megaPascals and maintained as such for about 30 minutes (for about 15 minutes after infusion of Carmustine has ceased). The infusion of gas filled vesicles will then be terminated.

[2] = system: prostate cancer; assay: Delivery of a radiation sensitizer to treat prostate cancer with air-filled polylactic acid microspheres and ultrasound; details: 100 mg/m^2 IV over 1 hour, microspheres 5×10^7/minute, endorectal ultrasound 1.5 MegaPascals for 30 minutes

Compound	tumor control ([1]; 200 mg/M^2 IV over about 30 minutes, gas filled vesicles about 2 mL per minute, 200-kilohertz ultrasound, 2.5 megaPascals)	delivery of the drug into the tumor tissue ([1]; in vivo, iv)	delivery of drug within the prostate gland [2]	tumor control ([2]; then radiation therapy)
O=NN(CCCl)C(=O)NCCCl [Carmustine]	improved tumor control	enhanced delivery of the drug into the tumor tissue		
CC(=O)O[C@H]1C(=O)[C@@]2(C)[C@H]([C@H](OC(=O)c3ccccc3)[C@]3(O)C[C@H](OC(=O)[C@H](O)[C@@H](NC(=O)c4ccccc4)c4ccccc4)C(C)=C1C3(C)C)[C@]1(OC(C)=O)CO[C@@H]1C[C@@H]2O [Paclitaxel]			increased delivery of drug within the prostate gland	Improved tumor control
